Laboratory results taken from PMC11092803, “Heme allocation in eukaryotic cells relies on mitochondrial heme export through FLVCR1b to cytosolic GAPDH” (Research Square, 2024).

Target: T1, IDO1 (Homo sapiens, UniProt P14902)
T1 construct: full-length with FLAG tag, expressed in HEK293T cells; immunoprecipitated for 14C-heme count
Assay: L-kynurenine in culture medium, p-dimethylaminobenzaldehyde colorimetry at […] nm
Assay type: cell-based
Conditions: intact HEK293T cells expressing IDO1; L-Trp 2 mM, with or without δ-ALA and ferric citrate, 5 h

T1 sequence (P14902 whole entry): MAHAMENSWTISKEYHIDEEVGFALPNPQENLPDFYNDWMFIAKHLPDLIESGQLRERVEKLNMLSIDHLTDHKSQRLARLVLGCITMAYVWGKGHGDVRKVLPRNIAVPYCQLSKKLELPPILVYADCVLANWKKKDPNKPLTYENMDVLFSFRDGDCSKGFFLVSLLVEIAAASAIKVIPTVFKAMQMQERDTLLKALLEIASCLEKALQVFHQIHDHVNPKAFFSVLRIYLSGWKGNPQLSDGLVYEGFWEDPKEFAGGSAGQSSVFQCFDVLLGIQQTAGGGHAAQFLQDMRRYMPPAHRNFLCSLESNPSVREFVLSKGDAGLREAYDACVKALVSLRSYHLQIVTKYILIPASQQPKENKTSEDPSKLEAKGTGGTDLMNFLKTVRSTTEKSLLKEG

Question: For `N[C@@H](Cc1c[nH]c2ccccc12)C(=O)O` [L-Trp], which “L-kynurenine in culture medium, p-dimethylaminobenzaldehyde colorimetry at 492 n” value is on record?
Answer: IDO1 activity was determined by colorimetric measure of the accumulated L-Kynurenine product
